Converted amounts (≈) assume the structure as drawn. “And” between values parts separate entries of the source, which are not always exact repeats. Equal values may be shown once. Read-outs that look alike come from different tables or passages of the source.
Experiments:
[1] = cited from earlier work; for Ketoconazole Concentration, Mean: three samples
[2] = cited from earlier work
[3] = Level III FeSSGF-V3HCl and HGFfed15 sample, 37 °C, shake-flask
[4] = Shake-flask apparent equilibrium solubility in biorelevant media (FeSSGF-V2, FEDGAS pH 3, FeSSGF-V3); assay type: physicochemical
Experimental: Biorelevant media were prepared on the day of the solubility measurements.
FEDGAS1/2 pH = 3 (Level II biorelevance[5]) was prepared as FEDGAS pH = 3 but with half the amount of FEDGASgel, i.e., by using 7.65 g of FEDGASgel/90 mL.
FEDGAS1/4 pH = 3 (Level II biorelevance[5]) was prepared as FEDGAS pH = 3 but with 1/4 of the amount of FEDGASgel, i.e., by using 3.825 g of FEDGASgel/90 mL.
FEDGASbuffer pH = 3 (Level I biorelevance[5]) was prepared by diluting FEDGAS buffer concentrate with distilled water, as indicated in Table 3.
In Level III FeSSGF-V3, the presence of proteins was simulated using Régilait Skimmed Milk Powder. The high-calorie, high-fat meal consists of up to about 1000 kcal and ≈15% of the total amount of calories is derived from proteins.[15],[16] If 1 g of protein corresponds to 4 kcal, then the meal contains up to about 37 g of proteins. Based on phenol red data, after a high-calorie, high-fat meal and a glass of water 30 min after initiation of meal intake, the impact of resting gastric contents/swallowed saliva/gastric secretions on the dilution of antral contents is substantial; however, dilution of contents occurs predominantly during meal administration.[8] Specifically, when 100 mg of phenol red was included in the meal, the mean phenol red concentration in the antrum fluctuated around 0.06 mg/mL for at least 3 h after initiation of meal administration.[6] It can, therefore, be assumed that the protein concentration in the antral region would be about 37 g × (0.06 mg/mL/100 mg) = 0.0222 g/mL ≈ 22 mg/mL. Since Régilait contains 36% w/w proteins, Régilait Skimmed Milk Powder 6.1% w/v in medium is equivalent to 2.196% (w/v) protein concentration, i.e., ≈ 22 mg/mL.

[5] = Shake-flask apparent equilibrium solubility in pooled human antral aspirates (HGFfed) collected after a high-calorie, high-fat meal and water; assay type: physicochemical; conditions: pooled antral (gastric) aspirates, fed state
physchem = conditions: for solubility thermodynamic at 4 h: human, pooled antral (gastric) aspirates, fed state, thermodynamic from solid; for solubility: simple aqueous solution
[6] = set-up: method as in PMID 19644845; conditions: cited from earlier work

C#C[C@]1(O)CC[C@H]2[C@@H]3CCC4=Cc5oncc5C[C@]4(C)[C@H]3CC[C@@]21C [Danazol]
Danazol Concentration ([1]; Level II FeSSIF, 1st filtration, samples 1, 2, 3 in order): 26.61 µg/mL and 26.22 µg/mL and 26.44 µg/mL | Danazol Concentration ([1]; Level II FeSSIF, 2nd filtration, samples 1, 2, 3 in order): 26.34 µg/mL and 25.39 µg/mL and 25.44 µg/mL | adsorption on regenerated cellulose filter ([1]; Level II FeSSIF): negligible adsorption | % adsorbed ([1]; Level II FeSSIF, samples 1, 2, 3 in order): 1.04% and 3.18% and 3.78% | logP [2]: 4.53

CC(=O)N1CCN(c2ccc(OCC3COC(Cn4ccnc4)(c4ccc(Cl)cc4Cl)O3)cc2)CC1 (stereo not drawn) [Ketoconazole]
adsorption on regenerated cellulose filter ([1]; aqueous buffers pH 3.5 to 5): negligible adsorption | Ketoconazole Concentration, Mean ([1]; pH 3.5, 1st filtration): 2.8763 mg/mL | Ketoconazole Concentration, Mean ([1]; pH 3.5, 2nd filtration): 2.8250 mg/mL | % adsorbed ([1]; pH 3.5): 1.63% | Ketoconazole Concentration, Mean ([1]; pH 4.0, 1st filtration): 0.9297 mg/mL | Ketoconazole Concentration, Mean ([1]; pH 4.0, 2nd filtration): 0.9288 mg/mL | % adsorbed ([1]; pH 4.0): 0.23% | Ketoconazole Concentration, Mean ([1]; pH 5.0, 1st filtration): 0.0825 mg/mL | Ketoconazole Concentration, Mean ([1]; pH 5.0, 2nd filtration): 0.0775 mg/mL | % adsorbed ([1]; pH 5.0): 6.16% | incubation time within which equilibrium is achieved [3]: ≤ 4 h | times higher than the point estimate of intragastric solubility ([4]; FEDGAS1/2 pH = 3 and FEDGAS1/4 pH = 3 vs 3 mg/mL): more than 1.6 times | times higher than the point estimate of intragastric solubility ([4]; FEDGAS pH = 3 vs 3 mg/mL): more than 2.5 times | percent higher than the point estimate for intragastric solubility ([4]; FEDGASbuffer pH 3 vs 3 mg/mL): 50% | percent lower than the point estimate for intragastric solubility ([4]; Level I FeSSGF-V2 vs 3 mg/mL): 30% | solubility thermodynamic at 4 h ([4]; Level I FeSSGF-V3acetates, pH 3, Level I FeSSGF-V3acetates, initial pH 3, pHeq 3.7): 3200 µg/mL (≈ 6.02 mM) | percent lower than the point estimate for intragastric solubility ([4]; Level II FeSSGF-V2 vs 3 mg/mL): more than 40% | solubility thermodynamic at 4 h ([4]; Level II FeSSGF-V3acetates, pH 3, Level II FeSSGF-V3acetates, initial pH 3, pHeq 3.7): 3450 µg/mL (≈ 6.49 mM) | solubility thermodynamic at 4 h ([4]; Level III FeSSGF-V3HCl, pH 3, Level III FeSSGF-V3HCl, initial pH 3, pHeq 3.8): 3730 µg/mL (≈ 7.02 mM) | percent higher than the estimated point solubility in antral contents ([4]; Level III FeSSGF-V3 prepared with hydrochloric acid): 24% | solubility thermodynamic at 4 h ([4]; biorelevant medium, 37 °C, pH 3, fassgf or other biorelevant, thermodynamic from solid, FEDGAS1/2 pH = 3 (Level II), mean(SD), n = 3): 5650 µg/mL (≈ 10.6 mM) | solubility thermodynamic at 4 h ([4]; biorelevant medium, 37 °C, pH 3, fassgf or other biorelevant, thermodynamic from solid, FEDGAS1/4 pH = 3 (Level II), mean(SD), n = 3): 5070 µg/mL (≈ 9.54 mM) | solubility thermodynamic at 4 h ([4]; biorelevant medium, 37 °C, pH 3, fassgf or other biorelevant, thermodynamic from solid, FEDGAS pH = 3 (Level II), mean(SD), n = 3): 7570 µg/mL (≈ 14.2 mM) | solubility thermodynamic at 4 h ([4]; biorelevant medium, 37 °C, pH 3, fassgf or other biorelevant, thermodynamic from solid, Level II FeSSGF-V2, pH 3, mean(SD), n = 3): 1640 µg/mL (≈ 3.08 mM) | solubility thermodynamic at 4 h ([4]; biorelevant medium, pH 3, FEDGASbuffer pH 3 (Level I), mean(SD), n = 3): 4600 µg/mL (≈ 8.66 mM) | solubility thermodynamic at 4 h ([4]; biorelevant medium, pH 3, Level I FeSSGF-V2, pH 3, mean(SD), n = 3): 2140 µg/mL (≈ 4.03 mM) | solubility at 4 h ([5]; 37 °C, plasma or biological fluid, thermodynamic from solid, from the four mean values in HGFfed45, 75, 105, 135, read-out: grand mean apparent solubility in HGFfed): 2290 µg/mL (≈ 4.31 mM) | solubility thermodynamic at 4 h ([5]; HGFfed45, 75, 105, 135, 37 °C, 4 h, mean(SD), read-out: mean apparent equilibrium solubility in pooled aspirates, range over the four HGFfed samples): 770 to 3670 µg/mL (≈ 1.45 to 6.91 mM) | solubility thermodynamic (physchem; aqueous phase, pH 3.7): 1290 µg/mL (≈ 2.43 mM) | solubility thermodynamic at 4 h (physchem; pH 4, plasma or biological fluid): 3000 µg/mL (≈ 5.65 mM) | solubility thermodynamic at 4 h (physchem; pH 4.1, plasma or biological fluid): 2340 µg/mL (≈ 4.4 mM) | solubility thermodynamic at 4 h (physchem; pH 4.2, plasma or biological fluid): 1470 µg/mL (≈ 2.77 mM) | solubility thermodynamic at 4 h (physchem; pH 4.6, plasma or biological fluid): 610 µg/mL (≈ 1.15 mM) | solubility thermodynamic at 4 h (physchem; plasma or biological fluid): 1850 µg/mL (≈ 3.48 mM) | solubility (physchem; pH 4): 650 µg/mL (≈ 1.22 mM) | solubility (physchem; pH 4.1): 520 µg/mL (≈ 0.978 mM) | solubility (physchem; pH 4.2): 410 µg/mL (≈ 0.771 mM) | solubility (physchem; pH 4.6): 170 µg/mL (≈ 0.32 mM) | apparent solubility in human antral fluids ([6]; 30 min after 500 mL Ensure Plus, pHeq 5.7): 630 µg/mL | apparent solubility in human antral fluids ([6]; 60 min after 500 mL Ensure Plus, pHeq 5.1): 3150 µg/mL | apparent solubility in human antral fluids ([6]; 120 min after 500 mL Ensure Plus, pHeq 4.9): 4700 µg/mL | intrinsic aqueous solubility [2]: ≈ 2 μg/mL | aqueous solubility at pHeq as share of measured apparent solubility (HGFfed45): 21% | aqueous solubility at pHeq as share of measured apparent solubility (HGFfed75): 22% | aqueous solubility at pHeq as share of measured apparent solubility (HGFfed105): 18% | aqueous solubility at pHeq as share of measured apparent solubility (HGFfed135): 18%

Reference: publication PMC11795529, “Simulation of Antral Conditions for Estimating Drug Apparent Equilibrium Solubility after a High-Calorie, High-Fat Meal” (Molecular Pharmaceutics, 2025)
